The values below come from ChEMBL document CHEMBL5096234, “Discovery, Optimization, and Evaluation of Selective CDK4/6 Inhibitors for the Treatment of Breast Cancer” (J Med Chem, 2022).

Molecules are shown by their SMILES. Where only a bound is given, the exact number is not on record here.

One experiment deals with CDK6/cyclin D1 (Homo sapiens, UniProt Q00534). Briefly: Inhibition of CDK6/cyclin-D1 (unknown origin) in presence of ATP by time resolved-FRET assay. The format is protein-complex assay.
Chain of CDK6/cyclin D1 (P24385 whole entry): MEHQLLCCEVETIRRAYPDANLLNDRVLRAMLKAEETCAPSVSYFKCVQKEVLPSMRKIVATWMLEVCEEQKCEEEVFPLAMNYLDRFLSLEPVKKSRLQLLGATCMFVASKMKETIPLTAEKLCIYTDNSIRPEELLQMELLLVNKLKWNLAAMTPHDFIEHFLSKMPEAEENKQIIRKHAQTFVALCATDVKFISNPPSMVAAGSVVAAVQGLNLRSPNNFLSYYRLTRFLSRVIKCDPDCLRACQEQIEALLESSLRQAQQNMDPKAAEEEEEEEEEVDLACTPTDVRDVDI
Chain of CDK6/cyclin D1 (Q00534 whole entry): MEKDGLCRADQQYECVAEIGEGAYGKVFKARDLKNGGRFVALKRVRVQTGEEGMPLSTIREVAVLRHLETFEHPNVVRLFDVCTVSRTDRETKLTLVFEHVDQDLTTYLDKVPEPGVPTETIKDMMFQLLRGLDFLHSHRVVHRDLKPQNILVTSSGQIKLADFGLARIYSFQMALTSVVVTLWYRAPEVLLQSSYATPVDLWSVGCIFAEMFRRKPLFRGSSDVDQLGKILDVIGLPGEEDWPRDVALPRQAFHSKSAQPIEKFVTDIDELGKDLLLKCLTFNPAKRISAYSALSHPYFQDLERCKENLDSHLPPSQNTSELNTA
The subject of experiment [1] is MCF7. Briefly: Antiproliferative activity against human MCF7 cells assessed as cell growth inhibition incubated for 72 hrs by CCK-8 assay. Format: functional.
The next experiment deals with CDK4/Cyclin D3 (Homo sapiens, UniProt P11802). Briefly: Inhibition of CDK4/cyclin-D3 (unknown origin) in presence of ATP by time resolved-FRET assay. The format is protein-complex assay.
Chain of CDK4/Cyclin D3 (P11802 whole entry): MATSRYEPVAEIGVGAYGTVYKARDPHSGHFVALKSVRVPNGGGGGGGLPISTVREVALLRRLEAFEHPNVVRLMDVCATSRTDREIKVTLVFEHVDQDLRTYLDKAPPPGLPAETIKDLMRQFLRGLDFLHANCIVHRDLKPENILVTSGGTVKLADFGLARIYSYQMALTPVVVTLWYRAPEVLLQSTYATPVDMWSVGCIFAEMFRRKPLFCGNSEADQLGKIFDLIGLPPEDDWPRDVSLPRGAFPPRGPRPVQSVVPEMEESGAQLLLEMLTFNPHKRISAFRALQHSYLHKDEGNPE
Chain of CDK4/Cyclin D3 (P30281 whole entry, further chain): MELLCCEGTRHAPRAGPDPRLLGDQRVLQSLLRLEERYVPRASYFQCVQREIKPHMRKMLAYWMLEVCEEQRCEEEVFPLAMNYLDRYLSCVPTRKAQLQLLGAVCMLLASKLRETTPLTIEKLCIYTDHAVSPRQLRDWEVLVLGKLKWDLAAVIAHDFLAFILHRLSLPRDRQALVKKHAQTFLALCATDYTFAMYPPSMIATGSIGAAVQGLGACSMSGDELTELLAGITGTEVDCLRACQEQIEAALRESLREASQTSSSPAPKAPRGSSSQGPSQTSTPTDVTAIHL
In the next experiment the test system is MCF-10A. Briefly: Antiproliferative activity against human MCF-10A cells assessed as cell growth inhibition incubated for 72 hrs by CCK-8 assay. Format: functional. For orientation: Formazan colour is commonly taken as a measure of viable cells.
Experiment [2] relates to T47D. Briefly: Induction of cell cycle arrest in human T47D cells assessed as accumulation of cells at G1 phase at 1.5 uM incubated for 24 hrs by propidium iodide staining based flow cytometry analysis (reference value: 69.55 %). The format is functional.
The subject of experiment [3] is T47D. Briefly: Induction of cell cycle arrest in human T47D cells assessed as accumulation of cells at G2 phase at 1.5 uM incubated for 24 hrs by propidium iodide staining based flow cytometry analysis (reference value: 16.57%). The format is functional. (In general: In flow cytometry, cells or beads pass a laser one at a time.)
Experiment [4] relates to T47D. The experiment is described as follows: Antiproliferative activity against human T47D cells assessed as cell growth inhibition incubated for 72 hrs by CCK-8 assay. The format is functional.
Experiment [5] concerns MCF7. The experiment is described as follows: Induction of cell cycle arrest in human MCF7 cells assessed as accumulation of cells at G1 phase at 1.5 uM incubated for 24 hrs by propidium iodide staining based flow cytometry analysis (reference value: 57.38%). The format is functional.
The test system of experiment [6] is MCF7. The experiment is described as follows: Induction of cell cycle arrest in human MCF7 cells assessed as accumulation of cells at G2 phase at 1.5 uM incubated for 24 hrs by propidium iodide staining based flow cytometry analysis (reference value: 29.66%). The format is functional.
Another experiment has as its target CDK9/cyclin T1 (Homo sapiens, UniProt P50750). Briefly: Inhibition of CDK9/Cyclin T1 (unknown origin) in presence of ATP by time resolved-FRET assay. Format: protein-complex assay.
Experiment [7] is described as follows: Inhibition of CDK1/cyclin B (unknown origin) in presence of ATP by time resolved-FRET assay. Further details: species or system Homo sapiens.
A further experiment addresses CDK2/Cyclin A2 (Homo sapiens, UniProt P24941). Briefly: Inhibition of CDK2/Cyclin A (unknown origin) in presence of ATP by time resolved-FRET assay. The format is protein-complex assay.
In another experiment the target is CDK7/Cyclin H/MNAT1 (Homo sapiens, UniProt P50613). Briefly: Inhibition of CDK7/cyclin H/MAT1 (unknown origin) in presence of ATP by time resolved-FRET assay. Format: protein-complex assay.
Chain of CDK7/Cyclin H/MNAT1 (P51946 whole entry): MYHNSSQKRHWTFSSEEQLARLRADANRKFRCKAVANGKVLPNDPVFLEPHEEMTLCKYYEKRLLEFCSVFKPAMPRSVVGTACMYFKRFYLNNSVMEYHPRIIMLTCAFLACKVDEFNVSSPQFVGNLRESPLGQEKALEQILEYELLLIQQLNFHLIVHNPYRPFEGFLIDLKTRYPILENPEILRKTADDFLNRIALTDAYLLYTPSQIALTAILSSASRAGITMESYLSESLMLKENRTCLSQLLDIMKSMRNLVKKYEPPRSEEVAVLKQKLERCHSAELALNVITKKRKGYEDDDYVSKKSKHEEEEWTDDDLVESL
Chain of CDK7/Cyclin H/MNAT1 (P50613 whole entry): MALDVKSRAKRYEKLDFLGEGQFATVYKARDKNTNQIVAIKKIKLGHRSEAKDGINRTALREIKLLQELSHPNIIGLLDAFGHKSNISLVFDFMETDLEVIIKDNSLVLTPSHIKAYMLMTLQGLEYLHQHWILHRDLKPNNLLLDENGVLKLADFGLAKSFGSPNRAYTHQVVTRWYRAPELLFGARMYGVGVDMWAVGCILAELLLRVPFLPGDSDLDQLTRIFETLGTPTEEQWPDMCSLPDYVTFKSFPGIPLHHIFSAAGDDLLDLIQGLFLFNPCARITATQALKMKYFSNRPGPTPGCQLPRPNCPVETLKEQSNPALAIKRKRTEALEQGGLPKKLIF
Chain of CDK7/Cyclin H/MNAT1 (P51948 whole entry, further chain): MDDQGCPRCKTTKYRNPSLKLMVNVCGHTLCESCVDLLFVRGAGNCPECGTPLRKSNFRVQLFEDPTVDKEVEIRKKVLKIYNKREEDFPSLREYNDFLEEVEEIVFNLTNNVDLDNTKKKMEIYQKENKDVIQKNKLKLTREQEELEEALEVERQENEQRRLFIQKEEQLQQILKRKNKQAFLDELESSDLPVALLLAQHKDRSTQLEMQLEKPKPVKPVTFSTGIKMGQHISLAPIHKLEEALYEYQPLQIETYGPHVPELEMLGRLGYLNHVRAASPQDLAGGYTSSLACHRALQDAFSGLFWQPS
The subject of experiment [8] is MCF7. Briefly: Induction of cell cycle arrest in human MCF7 cells assessed as accumulation of cells at G1 phase at 2.5 uM incubated for 24 hrs by propidium iodide staining based flow cytometry analysis (reference value: 57.38%). Format: functional.
The next experiment has as its system ZR-75-1. Briefly: Antiproliferative activity against human ZR-75-1 cells assessed as cell growth inhibition incubated for 72 hrs by CCK-8 assay. The format is functional.
The subject of experiment [9] is MCF7. Briefly: Induction of cell cycle arrest in human MCF7 cells assessed as accumulation of cells at G2 phase at 2.5 uM incubated for 24 hrs by propidium iodide staining based flow cytometry analysis (reference value: 29.66%). The format is functional.

Chain of CDK9/cyclin T1 (O60563 whole entry): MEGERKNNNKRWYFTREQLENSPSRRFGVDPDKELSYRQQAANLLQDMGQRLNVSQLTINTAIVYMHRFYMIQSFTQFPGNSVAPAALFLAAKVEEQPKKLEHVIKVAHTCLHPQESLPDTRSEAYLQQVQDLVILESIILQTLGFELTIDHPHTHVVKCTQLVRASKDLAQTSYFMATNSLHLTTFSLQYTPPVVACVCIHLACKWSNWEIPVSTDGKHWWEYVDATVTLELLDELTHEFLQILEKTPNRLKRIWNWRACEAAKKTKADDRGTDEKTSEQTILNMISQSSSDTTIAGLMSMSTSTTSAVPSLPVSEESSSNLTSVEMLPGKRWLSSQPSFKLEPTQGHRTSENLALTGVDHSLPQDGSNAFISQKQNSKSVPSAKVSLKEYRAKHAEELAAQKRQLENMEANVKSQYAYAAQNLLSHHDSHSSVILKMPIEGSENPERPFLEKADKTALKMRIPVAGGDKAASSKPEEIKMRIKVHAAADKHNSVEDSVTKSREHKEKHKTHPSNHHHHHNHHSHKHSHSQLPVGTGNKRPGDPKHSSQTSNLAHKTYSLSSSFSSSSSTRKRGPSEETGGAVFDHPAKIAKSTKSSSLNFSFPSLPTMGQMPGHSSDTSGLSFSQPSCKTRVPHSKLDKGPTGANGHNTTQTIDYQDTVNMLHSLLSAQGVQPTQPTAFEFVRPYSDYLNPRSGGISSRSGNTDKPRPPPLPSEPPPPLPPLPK
Chain of CDK9/cyclin T1 (P50750 whole entry): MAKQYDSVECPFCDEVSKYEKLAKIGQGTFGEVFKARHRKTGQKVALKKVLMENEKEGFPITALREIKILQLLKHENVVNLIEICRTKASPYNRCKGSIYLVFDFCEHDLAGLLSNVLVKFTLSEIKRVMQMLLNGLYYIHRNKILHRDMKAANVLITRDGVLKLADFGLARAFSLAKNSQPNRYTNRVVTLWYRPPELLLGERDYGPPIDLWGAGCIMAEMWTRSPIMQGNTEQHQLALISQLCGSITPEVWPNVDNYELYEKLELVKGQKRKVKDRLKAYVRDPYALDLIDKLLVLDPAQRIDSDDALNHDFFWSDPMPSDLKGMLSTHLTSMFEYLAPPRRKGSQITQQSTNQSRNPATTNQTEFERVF

As a reminder, the IC50 is the concentration needed to halve the response being measured. In the case of `CCN1CCN(Cc2ccc(Nc3ncc(F)c(-c4ccc5c(c4)OCO5)n3)nc2)CC1`, the 50% inhibitory concentration (IC50) on CDK6/cyclin D1 was found to be 254 nM.
For the compound `CC(C)(C)OC(=O)N1CCN(c2ccc(Nc3ncc(F)c(-c4ccc5c(c4)OCO5)n3)nc2)CC1`, the IC50 on CDK6/cyclin D1 was > 10000 nM.
Same read-out and setting: the same measure for `CC(C)N1CCN(Cc2ccc(Nc3ncc(F)c(-c4ccc5c(c4)CCN(C(C)C)C5=O)n3)nc2)CC1`: 640 nM.
On the same count and under the same terms, the same measure for `CCN1CCN(C(=O)c2ccc(Nc3ncc(F)c(-c4ccc5c(c4)OCCC5=O)n3)nc2)CC1`: 336 nM; for `Fc1cnc(Nc2ccc(N3CCNCC3)cn2)nc1-c1ccc2c(c1)OCO2`: 120 nM.
On the same count and under the same terms, the same measure for `CN1CCN(c2ccc(Nc3ncc(F)c(-c4ccc5c(c4)OCO5)n3)nc2)CC1`: 1140 nM.
By GI50 is commonly meant the concentration at which growth is held to half of that of the control. Regarding `CCN1CCN(C(=O)c2ccc(Nc3ncc(F)c(-c4ccc5c(c4)CCNC5=O)n3)nc2)CC1`, in the experiment with MCF7 [1], the concentration for 50% growth inhibition (GI50) was 3240 nM. Moreover, the IC50 at CDK6/cyclin D1 was 60 nM; at CDK4/Cyclin D3, 21 nM.
Take `CC(C)(C)OC(=O)N1CCN(Cc2ccc(Nc3ncc(F)c(-c4ccc5c(c4)OCCO5)n3)nc2)CC1`: at CDK6/cyclin D1, the IC50 was > 10000 nM.
In the case of `CC(C)(C)OC(=O)N1CCN(c2ccc(Nc3ncc(F)c(-c4ccc5c(c4)OCCO5)n3)nc2)CC1`, on CDK6/cyclin D1, the IC50 was > 10000 nM.
Still for that read-out and setting: the same measure for `CC(C)N1CCN(C(=O)c2ccc(Nc3ncc(F)c(-c4ccc5c(c4)OCCC5=O)n3)nc2)CC1`: 364 nM.
Turning to `CCN1CCN(Cc2ccc(Nc3ncc(F)c(-c4ccc5c(c4)OCCO5)n3)nc2)CC1`, the GI50 in the experiment on MCF7 [1] is 4710 nM. Besides, the IC50 on CDK6/cyclin D1 stood at 97 nM; at CDK4/Cyclin D3, 80 nM.
Taken in the same sequence, the figures for `Fc1cnc(Nc2ccc(N3CCNCC3)cn2)nc1-c1ccc2c(c1)OCCO2` were 3760 nM, 81 nM and 36 nM.
Take `CCN1CCN(C(=O)c2ccc(Nc3ncc(F)c(-c4ccc5c(c4)OCCO5)n3)nc2)CC1`: the half-inhibitory concentration (IC50) on CDK6/cyclin D1 was found to be 112 nM.
Regarding `O=C(c1ccc(Nc2ncc(F)c(-c3ccc4c(c3)OCCO4)n2)nc1)N1CCNCC1`, at CDK6/cyclin D1, the IC50 is 117 nM.
Still for that read-out and setting: the same measure for `Fc1cnc(Nc2ccc(CN3CCNCC3)cn2)nc1-c1ccc2c(c1)OCCO2`: 136 nM.
For the compound `CCN1CCN(Cc2ccc(Nc3ncc(F)c(-c4cc(F)c5nc(C)n(C(C)C)c5c4)n3)nc2)CC1` [ABEMACICLIB], the GI50 with MCF7 [1] amounted to 832 nM; in the experiment with MCF-10A, 5090 nM; in the experiment on T47D [4], 771 nM. Further, the Activity with T47D [2] turned out to be 81.8%; in the experiment with T47D [3], 9.32%; in the experiment on MCF7 [5], 77.44%; in the experiment with MCF7 [6], 17.65%.
For the compound `CN1CCN(c2ccc(Nc3ncc(F)c(-c4ccc5c(c4)OCCO5)n3)nc2)CC1`, the IC50 on CDK6/cyclin D1 was found to be 660 nM.
As to `CCN1CCN(C(=O)c2ccc(Nc3ncc(F)c(-c4ccc5c(c4)OCO5)n3)nc2)CC1`, the half-inhibitory concentration (IC50) on CDK6/cyclin D1 is 333 nM.
In the case of `CC(C)N1CCN(C(=O)c2ccc(Nc3ncc(F)c(-c4ccc5c(c4)CCC(=O)N5C(C)C)n3)nc2)CC1`, the IC50 on CDK6/cyclin D1 was > 1000 nM.
Same read-out and setting: the same measure for `CC(C)N1CCN(C(=O)c2ccc(Nc3ncc(F)c(-c4ccc5c(c4)OCCO5)n3)nc2)CC1`: 105 nM.
Same read-out and setting: the same measure for `CCN1CCN(C(=O)c2ccc(Nc3ncc(F)c(-c4ccc5c(c4)CCN(C(C)C)C5=O)n3)nc2)CC1`: 317 nM; for `CCN1CCN(C(=O)c2ccc(Nc3ncc(F)c(-c4ccc5c(c4)CCC(=O)N5C(C)C)n3)nc2)CC1`: 3720 nM.
For `CC(C)(C)OC(=O)N1CCN(C(=O)c2ccc(Nc3ncc(F)c(-c4ccc5c(c4)OCCO5)n3)nc2)CC1`, at CDK6/cyclin D1, the half-inhibitory concentration (IC50) is > 10000 nM.
On the same count and under the same terms, the same measure for `CC(C)N1CCN(Cc2ccc(Nc3ncc(F)c(-c4ccc5c(c4)CCC(=O)N5C(C)C)n3)nc2)CC1`: > 1000 nM.
In the case of `CC(C)N1CCN(C(=O)c2ccc(Nc3ncc(F)c(-c4ccc5c(c4)OCO5)n3)nc2)CC1`, the IC50 on CDK6/cyclin D1 is 296 nM.
Regarding `CN1CCc2cc(-c3nc(Nc4ccc(N5CCNCC5)cn4)ncc3F)ccc2C1=O`, in the experiment with MCF7 [1], the GI50 came to 2970 nM. Further, the IC50 on CDK9/cyclin T1 was 1040 nM; in [7], 1210 nM; on CDK6/cyclin D1 it was 32 nM; at CDK2/Cyclin A2 it was 676 nM; at CDK7/Cyclin H/MNAT1, > 10000 nM; on CDK4/Cyclin D3 it was 3 nM.
For the compound `O=C1NCCc2cc(-c3nc(Nc4ccc(N5CCNCC5)cn4)ncc3F)ccc21`, the GI50 with MCF7 [1] is 2900 nM. Moreover, the IC50 was 382 nM at CDK9/cyclin T1; 148 nM in experiment [7]; 36 nM on CDK6/cyclin D1; 175 nM on CDK2/Cyclin A2; 8240 nM at CDK7/Cyclin H/MNAT1; 8 nM on CDK4/Cyclin D3.
In the case of `CC(=O)c1c(C)c2cnc(Nc3ccc(N4CCNCC4)cn3)nc2n(C2CCCC2)c1=O` [PALBOCICLIB], the GI50 in the experiment with MCF7 [1] was found to be 3940 nM; in the experiment with MCF-10A, 19100 nM; in the experiment on T47D [4], 1060 nM; in the experiment with ZR-75-1 it was 2280 nM. For the same compound, the Activity is given as 84.74% in the experiment on T47D [2], 6.13% in the experiment on T47D [3], 81.49% in the experiment with MCF7 [8] and 14.51% in the experiment on MCF7 [9].
On to `CC(C)N1CCN(Cc2ccc(Nc3ncc(F)c(-c4ccc5c(c4)OCCO5)n3)nc2)CC1`, for which the half-inhibitory concentration (IC50) on CDK6/cyclin D1 was 138 nM.
On to `CC(C)N1CCc2cc(-c3nc(Nc4ccc(N5CCNCC5)cn4)ncc3F)ccc2C1=O`, for which, in the experiment with MCF7 [1], the GI50 was found to be 3070 nM. The concentration for half-maximal inhibition (IC50) is 1960 nM on CDK9/cyclin T1; 6960 nM in [7]; 42 nM on CDK6/cyclin D1; 495 nM on CDK2/Cyclin A2; 8720 nM on CDK7/Cyclin H/MNAT1; 14 nM on CDK4/Cyclin D3.
